Assays:
[1] = tested on: mBSA-induced monoarthritis model; test: Suppressive effect on knee joint swelling in mBSA-induced monoarthritis model; assay type: in vivo, rat; conditions: for AUC (% of control) (mean ± SEM): AUC of knee joint swelling to two weeks after induction, control = HA-treated group, 50 μL into right knee joint 7 and 1 day before and 7 days after induction
Method: An in vivo synovitis-suppressing effect of each HA-MTX conjugate of the invention was assessed on the basis of a suppressive effect on knee joint swelling in a methylated bovine serum albumin (mBSA)-induced monoarthritis model of rat. Since the mBSA-induced arthritis model employed in this experimental example is widely used as an antigen-induced arthritis model, and known to develop synovitis (Sven E. Andersson, et al., The Journal of Rheumatology (1998) 25: 9, 1772-7), the in vivo knee joint swelling-suppressing effect observed in this model conceivably represents a synovitis-suppressing effect. The compounds of the invention suppressing synovitis in vivo are useful as therapeutic drugs for joint diseases accompanied by synovitis (RA, OA, and the like).
The animal used was the LEW/Crj rat (6-week old male, from Charles River Laboratories Japan, Inc.). Into the flank of the rat was subcutaneously injected 0.5 mL of an emulsion prepared from a 2 mg/mL mBSA (Calbiochem) aqueous solution and an equal amount of Freund's complete adjuvant (Difco) 21 and 14 days before inducing arthritis. The arthritis was induced by administering 50 μL of a 2 mg/mL mBSA aqueous solution into the right knee joint. The left knee joint was untreated, and served as control in each individual. Each test substance (sterile aqueous solution) and the control drug hyaluronic acid were each administered into the right knee joint in an amount of 50 μL 7 and 1 day before and 7 days after inducing arthritis.
The determination of knee joint swelling involved measuring the widths of both knee joints with calipers to define the left/right difference (right knee diameter-left knee diameter) as a knee joint swelling. The width of each knee joint was measured at a frequency of twice a week from immediately before inducing arthritis to two weeks later to calculate AUC (an abbreviation for Area Under the Curve; here, it means an area under a curve with time for the joint swelling) from the transition thereof with time. At each measurement, the mean and standard deviation of AUC were calculated to perform an unpaired t-test between each test substance-treated group and the HA-treated group, and significant difference was judged to be present if the probability level is less than 5%. Statistical analysis used SAS version 6.12 (SAS Institute Japan). In addition, the AUC of each test substance was calculated, using that in the HA-treated group as a control, as a relative value (% of control) therefor.
To verify the usefulness of the HA-MTX conjugate of the invention, the suppressive effect on joint swelling was compared, in accordance with the method of Example 3, among: 1) a group treated with the HA-MTX conjugate (sterile aqueous solution) prepared in Example 2-2; 2) a group treated with a solution containing MTX of an amount equal to that of MTX contained in the HA-MTX conjugate; and 3) a group of treated with a mixture (HA+MTX) of MTX and hyaluronic acid (HA) of amounts equal to those contained in the conjugate. The transition of knee joint swelling with time in this test is shown in FIG. 2, and the AUC thereof in FIG. 3.

[2] = tested on: human synovial cells (HFLS); test: Anti-proliferative effect on synovial cells stimulated by TNF-α ([3H]-deoxyuridine uptake); assay type: cell-based; conditions: TNF-α 10 ng/mL, 5 days culture, concentration calculated as MTX from conjugation rate
Excerpt: An effect of the HA-MTX conjugates of the invention on cell proliferation induced by TNF-α stimulation was examined using human synovial cells (HFLS). The main lesion in rheumatoid arthritis (RA) occurs in the synovial tissue, and, as one of the features, it is known that synovial cells abnormally proliferate to form a granulation tissue (pannus) and thereby destroy the cartilage and bone of the joint. Secondary synovitis is also observed in osteoarthritis (OA). […] Thus, a compound inhibiting the proliferation of synovial cells stimulated by the inflammatory cytokine TNF-α suppresses the progression of the pathologic conditions of RA and OA and becomes a therapeutic drug therefor. The sterile aqueous solutions of the HA-MTX conjugates in Example 2 (Table 2) were used as test substances. HFLS (CA40405, Lot Nos. 1413 and 1493) was purchased from Cell Applications Ins. for use. HFLS was seeded at 5,000 cells/well on a 96-well plate (Falcon) and cultured for 3 hours in Iscove's modified Dulbecco's medium (IMDM) containing 5% FBS and 1× Antibiotic-Antimycotic (GIBOC). After cellular attachment, TNF-α (final concentration: 10 ng/mL) and each HA-MTX conjugate at each concentration was added, followed by cultivation for 5 days. Two days before the end of culture, was added 37 kBq/well of [^3H]-deoxyuridine in the cells (MORAVEK), followed by determining the uptake quantity (radioactivity) of [^3H]-deoxyuridine using a scintillation counter. Cells were recovered by unsticking them with 0.05% trypsin-0.2% EDTA. Radioactivity determined in each of the experiments with each test substance was calculated as a relative value (% of control), using, as control, radioactivity in the group of cells cultured without adding any test substance. […] GraphPad Prism 3.02).

Compound | suppressive effect on joint swelling / alleviating effect on synovitis ([1]; Experimental Example 4: conjugate vs equal amount of MTX vs mixture HA+MTX, FIGS. 2 and 3) | IC50 [2] | AUC (% of control) (mean ± SEM) [1]
CN(Cc1cnc2nc(N)nc(N)c2n1)c1ccc(C(=O)N[C@@H](CCC(=O)O)C(=O)O)cc1 [MTX alone, methotrexate] | neither MTX alone nor the mixture of HA and MTX had a sufficient alleviating effect on synovitis | 0.055 µM | 
MTX-α-AsnPhePhe-NHC10H20O3NH-HA [Example 2-47] |  | 1.1 µM | 42.1 ± 6.3 % of control
MTX-α-Glu-NHC2H4NH-HA [Example 2-30] |  | 54 µM | 58.3 ± 7.4 % of control
MTX-α-His-NHC10H20O3NH-HA [Example 2-36] |  | 17 µM | 
MTX-α-Ile-NHC2H4NH-HA [Example 2-28] |  | 12 µM | 63.5 ± 4.7 % of control
MTX-α-Leu-NHC10H20O3NH-HA [Example 2-34] |  | 3.6 µM | 
MTX-α-Phe-NHC10H20O3NH-HA [Example 2-26] |  | 1.7 µM | 
MTX-α-PheGly-NHC4H8ONH-HA [Example 2-22] |  | 3 µM | 
MTX-α-PheGly-NHC6H12O2NH-HA [Example 2-21] |  | 0.83 µM | 47.4 ± 8.8 % of control
MTX-α-PheGly-NHC8H16O2NH-HA [Example 2-20] |  | 18 µM | 65.3 ± 9.6 % of control
MTX-α-PheGly-NHC10H20O2NH-HA [Example 2-19] |  | 5.4 µM | 
MTX-α-PheGly-NHC10H20O3NH-HA [Example 2-15] |  | 0.48 µM | 
MTX-α-PheGly-NHC10H20O3NH-HA [Example 2-16] |  | 13 µM | 
MTX-α-PheGly-NHC10H20O3NH-HA [Example 2-17] |  | 13 µM | 56.1 ± 8.2 % of control
MTX-α-PhePhe-Lys-HA [Example 2-14] |  | 15 µM | 54.3 ± 7.4 % of control
MTX-α-PhePhe-NHC2H4NH-HA [Example 2-2′] |  | 0.72 µM | 65.5 ± 7.5 % of control
MTX-α-PhePhe-NHC2H4NH-HA [Example 2-3] |  |  | 76.2 ± 7.7 % of control
MTX-α-PhePhe-NHC2H4NH-HA [Example 2-4] |  | 11 µM | 69.0 ± 6.5 % of control

Compound | suppressive effect on joint swelling / alleviating effect on synovitis ([1]; Experimental Example 4: conjugate vs equal amount of MTX vs mixture HA+MTX, FIGS. 2 and 3) | IC50 [2] | AUC (% of control) (mean ± SEM) [1]
MTX-α-PhePhe-NHC2H4NH-HA [Example 2-5] |  | 1.1 µM | 51.7 ± 3.8 % of control
MTX-α-PhePhe-NHC2H4NH-HA [Example 2-6] |  | 0.091 µM | 41.6 ± 7.6 % of control
MTX-α-PhePhe-NHC2H4NH-HA [Example 2-7] |  |  | 46.5 ± 4.8 % of control
MTX-α-PhePhe-NHC4H80NH-HA [Example 2-12] |  | 0.3 µM | 
MTX-α-PhePhe-NHC5H10NH-HA [Example 2-13] |  | 1.5 µM | 60.5 ± 9.9 % of control
MTX-α-PhePhe-NHC6H12O2NH-HA [Example 2-11] |  | 0.25 µM | 
MTX-α-PhePhe-NHC10H20O2NH-HA [Example 2-9] |  | 1.3 µM | 
MTX-α-PhePhe-NHC10H20O3NH-HA [Example 2-49] |  | 13 µM | 
MTX-α-PhePro-NHC10H20O3NH-HA [Example 2-23] |  | 12 µM | 
MTX-α-PheβAla-NHC2H4NH-HA [Example 2-25] |  | 0.29 µM | 
MTX-α-PheβAla-NHC10H20O3NH-HA [Example 2-24] |  | 3.5 µM | 
MTX-α-Ser-NHC10H20O3NH-HA [Example 2-33] |  | 36 µM | 
MTX-α-Trp-NHC10H20O3NH-HA [Example 2-32] |  | 4.7 µM | 
MTX-α-Val-NHC10H20O3NH-HA [Example 2-35] |  | 11 µM | 
MTX-α-βAla-NHC10H20O3NH-HA [Example 2-38] |  |  | 69.3 ± 4.2 % of control
MTX-γ-PheGly-NHC10H20O3NH-HA [Example 2-42] |  | 14 µM | 
MTX-γ-PhePhe-NHC4H8ONH-HA [Example 2-41] |  |  | 67.1 ± 8.3 % of control
MTX-γ-PhePhe-NHC10H20O3NH-HA [Example 2-39] |  | 3.2 µM | 
